Drawing on PubChem BioAssay (NCI), this text covers TGI and GI50 for 16 compounds.

Among the test systems are SN12C renal; HL-60(TB) leukemia; LOX IMVI melanoma; SK-MEL-2 melanoma; U251 CNS; 786-0 renal; OVCAR-3 ovarian; NCI-H522 lung; NCI/ADR-RES ovarian; MDA-MB-231 breast.
Holding throughout (assay): growth of human tumour cells (NCI), 48 h

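48-hour exposure; five concentrations; linearly interpolated endpoints. GI50 = concentration required for 50% inhibition of growth. TGI marks complete inhibition of growth.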

In the case of `O=C(CCCC(=O)Nc1ccc(Cl)cc1Cl)CC(=O)c1ccc2ccccc2c1`, the TGI in the experiment with SN12C renal, with HL-60(TB) leukemia, in the experiment on LOX IMVI melanoma, with SK-MEL-2 melanoma, in the experiment with U251 CNS and with 786-0 renal was more than 100 µM in each case. Also, the TGI with OVCAR-3 ovarian is more than 100 µM.

`CCCCCCCCOCC(COC(=O)CCCCCCC)OC(=O)CCCCCCC` (configuration not stated): the TGI with SN12C renal, in the experiment on HL-60(TB) leukemia, in the experiment on LOX IMVI melanoma, with U251 CNS, in the experiment with 786-0 renal and with OVCAR-3 ovarian was more than 100 µM in each case.

In the case of `CC12OC(=O)C(C#N)C1(C)C1C(=O)CCCC12` (configuration not stated), the TGI in the experiment with SN12C renal, in the experiment on HL-60(TB) leukemia, in the experiment on LOX IMVI melanoma, in the experiment on SK-MEL-2 melanoma, with U251 CNS and with 786-0 renal was more than 100 µM throughout. The TGI with OVCAR-3 ovarian was more than 100 µM.

`CCOC(=O)/C(=C/c1ccccn1)C(=O)c1ccccc1`: the TGI in the experiment on SN12C renal is 27.2 µM; with HL-60(TB) leukemia, 5.3 µM; in the experiment on LOX IMVI melanoma, 6.94 µM; in the experiment with SK-MEL-2 melanoma, 28.9 µM; with U251 CNS it was 27.4 µM; in the experiment on NCI-H522 lung, 13.8 µM. For the same compound, the TGI with 786-0 renal was determined as 25.9 µM; in the experiment with OVCAR-3 ovarian, 27.4 µM.

Turning to `Cc1ccccc1C(CCCO)C(=O)O` (configuration not stated), the TGI in the experiment with SN12C renal, in the experiment on HL-60(TB) leukemia, in the experiment with LOX IMVI melanoma, in the experiment with SK-MEL-2 melanoma, in the experiment on U251 CNS and in the experiment on NCI-H522 lung was more than 100 µM throughout. Moreover, the TGI with 786-0 renal and in the experiment with OVCAR-3 ovarian was more than 100 µM throughout.

Consider `CCc1cccc(CC)c1NC(=O)/C(Cl)=C(/Cl)C(=O)O`, for which the TGI in the experiment with SN12C renal was 45.9 µM; with HL-60(TB) leukemia, more than 67.3 µM; in the experiment on LOX IMVI melanoma it was more than 100 µM; in the experiment on SK-MEL-2 melanoma it was more than 100 µM; in the experiment on U251 CNS, more than 69.8 µM; with NCI-H522 lung, 29.1 µM. Moreover, the TGI in the experiment with 786-0 renal is more than 56.2 µM; with OVCAR-3 ovarian, 48.1 µM.

On to `C=C(CN1CCc2[nH]c3ccc(F)cc3c2C1)c1ccc(C(=O)Nc2ccccc2N)cc1`, for which the GI50 with NCI/ADR-RES ovarian is 0.621 µM; in the experiment with SN12C renal it was 3.82 µM; in the experiment with SK-MEL-2 melanoma, 1.07 µM; in the experiment with U251 CNS it was 2.91 µM; with MDA-MB-231 breast it was 2.82 µM; in the experiment with NCI-H522 lung, 0.316 µM. Also, the values for the GI50 with 786-0 renal and with OVCAR-3 ovarian were 0.56 µM and 2.08 µM, respectively. The TGI was found to be 11.3 µM in the experiment with NCI/ADR-RES ovarian; 14 µM with SN12C renal; 8.14 µM in the experiment with SK-MEL-2 melanoma; 11.2 µM in the experiment on U251 CNS; 11.3 µM with MDA-MB-231 breast; 1.35 µM with NCI-H522 lung. Also, the TGI turned out to be 3.59 µM in the experiment on 786-0 renal and 6.84 µM in the experiment on OVCAR-3 ovarian.

As for `NC1=NC(Cn2nc(-c3ccccc3)c3ccccc3c2=O)=NNC(=O)N1`, the TGI with SN12C renal, with SK-MEL-2 melanoma, with U251 CNS, in the experiment on NCI-H522 lung, in the experiment on 786-0 renal and in the experiment on OVCAR-3 ovarian was more than 100 µM in each case.

On to `Nc1nc(=S)c2c(ncn2CCO)[nH]1`, for which the TGI with SN12C renal, in the experiment on HL-60(TB) leukemia, in the experiment with LOX IMVI melanoma, in the experiment on SK-MEL-2 melanoma, in the experiment with U251 CNS and in the experiment on NCI-H522 lung was more than 100 µM throughout. Besides, the TGI in the experiment on 786-0 renal and in the experiment on OVCAR-3 ovarian was more than 100 µM in each case.

With `O=NN(CCCl)C(=O)NC1CCC(CC(=O)O)CC1` (configuration not stated), the TGI with NCI/ADR-RES ovarian, in the experiment on SN12C renal, with HL-60(TB) leukemia, in the experiment on LOX IMVI melanoma, in the experiment on SK-MEL-2 melanoma and in the experiment on U251 CNS was more than 100 µM throughout. Besides, the TGI in the experiment with NCI-H522 lung, with 786-0 renal and in the experiment on OVCAR-3 ovarian was more than 100 µM each time.

On to `CC(=O)Nc1ccc(C2CC(c3ccc([N+](=O)[O-])cc3)=Nc3ccccc3S2=O)cc1` (configuration not stated), for which the TGI with SN12C renal is 72.2 µM; in the experiment with HL-60(TB) leukemia it was 42.2 µM; in the experiment with LOX IMVI melanoma, 31.8 µM; in the experiment on SK-MEL-2 melanoma it was more than 100 µM; in the experiment on NCI-H522 lung, 34.7 µM; in the experiment on 786-0 renal it was 22.6 µM. In the experiment with OVCAR-3 ovarian, this compound came in with a TGI of 54.7 µM.

In the case of `COc1ccc(-c2c(C3=NCCCN3)nnn2-c2ccccc2)cc1`, the TGI in the experiment on SN12C renal, in the experiment on HL-60(TB) leukemia, with LOX IMVI melanoma, in the experiment with SK-MEL-2 melanoma, in the experiment on U251 CNS and with NCI-H522 lung was more than 100 µM each time. Also, the TGI with 786-0 renal and in the experiment with OVCAR-3 ovarian was more than 100 µM each time.

For the compound `CCCC(=O)CC(C)C(=O)C(=O)NC12CC3CC(CC(C3)C1)C2` (configuration not stated), the TGI in the experiment on SN12C renal, in the experiment with HL-60(TB) leukemia, in the experiment on LOX IMVI melanoma, with SK-MEL-2 melanoma, in the experiment on U251 CNS and in the experiment with NCI-H522 lung was more than 100 µM throughout. Further, the TGI in the experiment with 786-0 renal and in the experiment with OVCAR-3 ovarian was more than 100 µM each time.

As to `COc1cc(/C=C/c2csnn2)cc(OC)c1OC`, the TGI with SN12C renal, with HL-60(TB) leukemia, with LOX IMVI melanoma, in the experiment on SK-MEL-2 melanoma, in the experiment with U251 CNS and with NCI-H522 lung was more than 100 µM each time. Moreover, the TGI in the experiment on 786-0 renal and in the experiment with OVCAR-3 ovarian was more than 100 µM throughout.

`C[C@H](C(=O)O)C(=O)NC(=O)N(Cc1ccccc1)N=O`: the TGI in the experiment with SN12C renal, with LOX IMVI melanoma, with SK-MEL-2 melanoma, in the experiment with U251 CNS, in the experiment with 786-0 renal and in the experiment with OVCAR-3 ovarian was more than 100 µM throughout.

Regarding `COC(=O)C1=C(C(=O)OC)C2(c3ccccc3)OC1(c1ccccc1)c1cc3ccccc3cc12`, the TGI turned out to be 4.18 µM in the experiment with SN12C renal; 1.84 µM with HL-60(TB) leukemia; 2.71 µM with LOX IMVI melanoma; 3.13 µM with SK-MEL-2 melanoma; 18.8 µM in the experiment on U251 CNS; 2.7 µM in the experiment on 786-0 renal. Moreover, in the experiment with OVCAR-3 ovarian, the TGI amounted to 2.68 µM.
